Assay results published in PubChem BioAssay (NCI).
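Five compound concentrations were applied to cells in 96-well plates for 48 hours; endpoints were derived by simple linear interpolation of the resulting dose-response curve. At the GI50, growth is halved. TGI: total growth inhibition.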

Experiments:
Experiment in all cases: NCI tumour cell line growth inhibition, 48 h
786-0 renal = tested on: 786-0 renal
A498 renal = tested on: A498 renal
A549 NSCLC = tested on: A549 NSCLC
ACHN renal = tested on: ACHN renal
BT-549 breast = tested on: BT-549 breast
CAKI-1 renal = tested on: CAKI-1 renal
CCRF-CEM leukemia = tested on: CCRF-CEM leukemia
COLO 205 colon = tested on: COLO 205 colon
DU-145 prostate = tested on: DU-145 prostate
EKVX NSCLC = tested on: EKVX NSCLC
HCC-2998 colon = tested on: HCC-2998 colon
HCT-116 colon = tested on: HCT-116 colon
HCT-15 colon = tested on: HCT-15 colon
HOP-62 NSCLC = tested on: HOP-62 NSCLC
HOP-92 NSCLC = tested on: HOP-92 NSCLC
HS 578T breast = tested on: HS 578T breast
HT29 colon = tested on: HT29 colon
IGROV1 ovarian = tested on: IGROV1 ovarian
K-562 leukemia = tested on: K-562 leukemia
KM12 colon = tested on: KM12 colon
LOX IMVI melanoma = tested on: LOX IMVI melanoma
M14 melanoma = tested on: M14 melanoma
MALME-3M melanoma = tested on: MALME-3M melanoma
MCF7 breast = tested on: MCF7 breast
MDA-MB-231 breast = tested on: MDA-MB-231 breast
MDA-MB-435 = tested on: MDA-MB-435
MOLT-4 leukemia = tested on: MOLT-4 leukemia
NCI-H226 lung = tested on: NCI-H226 lung
NCI-H23 lung = tested on: NCI-H23 lung
NCI-H460 lung = tested on: NCI-H460 lung
NCI-H522 lung = tested on: NCI-H522 lung
NCI/ADR-RES ovarian = tested on: NCI/ADR-RES ovarian
OVCAR-3 ovarian = tested on: OVCAR-3 ovarian
OVCAR-4 ovarian = tested on: OVCAR-4 ovarian
OVCAR-5 ovarian = tested on: OVCAR-5 ovarian
OVCAR-8 ovarian = tested on: OVCAR-8 ovarian
PC-3 prostate = tested on: PC-3 prostate
RPMI-8226 leukemia = tested on: RPMI-8226 leukemia
RXF 393 renal = tested on: RXF 393 renal
SF-268 CNS = tested on: SF-268 CNS
SF-295 CNS = tested on: SF-295 CNS
SF-539 CNS = tested on: SF-539 CNS
SK-MEL-2 melanoma = tested on: SK-MEL-2 melanoma
SK-MEL-28 melanoma = tested on: SK-MEL-28 melanoma
SK-MEL-5 melanoma = tested on: SK-MEL-5 melanoma
SK-OV-3 ovarian = tested on: SK-OV-3 ovarian
SN12C renal = tested on: SN12C renal
SNB-19 CNS = tested on: SNB-19 CNS
SNB-75 CNS = tested on: SNB-75 CNS
SR leukemia = tested on: SR leukemia
SW-620 colon = tested on: SW-620 colon
T-47D breast = tested on: T-47D breast
TK-10 renal = tested on: TK-10 renal
U251 CNS = tested on: U251 CNS
UACC-257 melanoma = tested on: UACC-257 melanoma
UACC-62 melanoma = tested on: UACC-62 melanoma
UO-31 renal = tested on: UO-31 renal

## CCN1C(=O)CNc2ncc(-c3ccc(-c4ncn[nH]4)nc3C)nc21
786-0 renal
  GI50: 117 nM
  TGI: 4350 nM
A498 renal
  GI50: 13 nM
  TGI: 61.3 nM
A549 NSCLC
  GI50: 263 nM
  TGI: 7240 nM
ACHN renal
  GI50: 140 nM
  TGI: 2160 nM
BT-549 breast
  GI50: 71.6 nM
  TGI: 695 nM
CAKI-1 renal
  GI50: 44.1 nM
  TGI: 576 nM
CCRF-CEM leukemia
  GI50: 215 nM
  TGI: > 34800 nM
COLO 205 colon
  GI50: 160 nM
  TGI: 1720 nM
DU-145 prostate
  GI50: 253 nM
  TGI: 12700 nM
EKVX NSCLC
  GI50: 188 nM
  TGI: 5770 nM
HCC-2998 colon
  GI50: 338 nM
  TGI: 12400 nM
HCT-116 colon
  GI50: 277 nM
  TGI: 4620 nM
HCT-15 colon
  GI50: 202 nM
  TGI: 10900 nM
HOP-62 NSCLC
  GI50: 140 nM
  TGI: 2460 nM
HOP-92 NSCLC
  GI50: 21.2 nM
  TGI: 168 nM
HS 578T breast
  GI50: 111 nM
  TGI: 526 nM
HT29 colon
  GI50: 317 nM
  TGI: 11600 nM
IGROV1 ovarian
  GI50: 45 nM
  TGI: 606 nM
K-562 leukemia
  GI50: 358 nM
  TGI: > 100000 nM
KM12 colon
  GI50: 193 nM
  TGI: 11300 nM
LOX IMVI melanoma
  GI50: 205 nM
  TGI: 2470 nM
M14 melanoma
  GI50: 91.7 nM
  TGI: 2790 nM
MALME-3M melanoma
  GI50: 22.7 nM
  TGI: 221 nM
MCF7 breast
  GI50: 51 nM
  TGI: 10700 nM
MDA-MB-231 breast
  GI50: 127 nM
  TGI: 3330 nM
MDA-MB-435
  GI50: 162 nM
  TGI: 1630 nM
MOLT-4 leukemia
  GI50: 139 nM
  TGI: 1540 nM
NCI-H226 lung
  GI50: 128 nM
  TGI: 6440 nM
NCI-H23 lung
  GI50: 238 nM
  TGI: 8270 nM
NCI-H460 lung
  GI50: 118 nM
  TGI: 11300 nM
NCI-H522 lung
  GI50: 147 nM
  TGI: 2880 nM
NCI/ADR-RES ovarian
  GI50: 284 nM
  TGI: 3580 nM
OVCAR-3 ovarian
  GI50: 189 nM
  TGI: 4490 nM
OVCAR-4 ovarian
  GI50: 103 nM
  TGI: 1130 nM
OVCAR-5 ovarian
  GI50: 169 nM
  TGI: 8960 nM
OVCAR-8 ovarian
  GI50: 385 nM
  TGI: 5230 nM
PC-3 prostate
  GI50: 70.6 nM
  TGI: 1970 nM
RPMI-8226 leukemia
  GI50: 45.4 nM
  TGI: 553 nM
RXF 393 renal
  GI50: 47.6 nM
  TGI: 371 nM
SF-268 CNS
  GI50: 235 nM
  TGI: 10200 nM
SF-295 CNS
  GI50: 105 nM
  TGI: 679 nM
SF-539 CNS
  GI50: 144 nM
  TGI: 859 nM
SK-MEL-2 melanoma
  GI50: 162 nM
  TGI: 711 nM
SK-MEL-28 melanoma
  GI50: 115 nM
  TGI: 1440 nM
SK-MEL-5 melanoma
  GI50: 86.4 nM
  TGI: 792 nM
SK-OV-3 ovarian
  GI50: 102 nM
  TGI: 617 nM
SN12C renal
  GI50: 168 nM
  TGI: 14900 nM
SNB-19 CNS
  GI50: 337 nM
  TGI: 6900 nM
SNB-75 CNS
  GI50: 36.9 nM
  TGI: 321 nM
SR leukemia
  GI50: 253 nM
  TGI: 4090 nM
SW-620 colon
  GI50: 439 nM
  TGI: 12100 nM
T-47D breast
  GI50: 16.9 nM
  TGI: 185 nM
TK-10 renal
  GI50: 83.3 nM
  TGI: 1360 nM
U251 CNS
  GI50: 289 nM
  TGI: 9640 nM
UACC-257 melanoma
  GI50: 184 nM
  TGI: 2110 nM
UACC-62 melanoma
  GI50: 77.7 nM
  TGI: 587 nM
UO-31 renal
  GI50: 24.8 nM
  TGI: 599 nM
